Reference: the CheMixHub viscosity set

Assay: xn = mol fraction of the nth substance listed

CC(C)NC(C)C + CCCCCCCCCCO
viscosity [mPa·s], 101 kPa
Conditions | 298.15 K | 303.15 K | 308.15 K
x1 = 0.0531 | 9.942 | 8.148 | 6.888
x1 = 0.1065 | 8.911 | 7.421 | 6.317
x1 = 0.1557 | 8.093 | 6.67 | 5.66
x1 = 0.2072 | 7.186 | 5.835 | 4.947
x1 = 0.2506 | 6.335 | 5.168 | 4.413
x1 = 0.3127 | 5.184 | 4.271 | 3.777
x1 = 0.4084 | 3.737 | 3.133 | 2.732
x1 = 0.5054 | 2.653 | 2.228 | 2.059
x1 = 0.6066 | 1.752 | 1.522 | 1.375
x1 = 0.7056 | 1.183 | 1.059 | 0.956
x1 = 0.8036 | 0.838 | 0.75 | 0.702
x1 = 0.853 | 0.689 | 0.628 | 0.587
x1 = 0.9073 | 0.531 | 0.494 | 0.467
x1 = 0.9521 | 0.459 | 0.43 | 0.358

CCCCCCCCCCCO + CCCCCCCCCO
viscosity [mPa·s]
Conditions | x2 = 0.116 | x2 = 0.3375 | x2 = 0.5442 | x2 = 0.7372 | x2 = 0.7995 | x2 = 0.9152
298.15 K, 101 kPa | – | – | – | – | 10.35 | –
298.15 K, 101.8 kPa | 13.57 | 12.52 | – | – | – | 9.874
308.15 K, 101.8 kPa | 9.384 | 8.667 | 8.041 | 7.476 | – | 6.965
318.15 K, 101.8 kPa | 6.631 | 6.157 | 5.752 | 5.366 | – | 5.017

CC(C)NC(C)C + CCCCCCCCO
viscosity [mPa·s], 101 kPa
Conditions | 298.15 K | 303.15 K | 308.15 K
x1 = 0.0552 | 6.422 | 5.366 | 4.483
x1 = 0.1034 | 5.774 | 4.866 | 4.045
x1 = 0.1579 | 5.107 | 4.286 | 3.62
x1 = 0.2037 | 4.51 | 3.87 | 3.235
x1 = 0.2551 | 3.898 | 3.326 | 2.826
x1 = 0.3074 | 3.339 | 2.871 | 2.455
x1 = 0.4058 | 2.441 | 2.128 | 1.84
x1 = 0.5058 | 1.758 | 1.535 | 1.352
x1 = 0.606 | 1.265 | 1.143 | 1.046
x1 = 0.7025 | 0.916 | 0.84 | 0.76
x1 = 0.8044 | 0.664 | 0.616 | 0.58
x1 = 0.8545 | 0.571 | 0.537 | 0.502
x1 = 0.8931 | 0.509 | 0.487 | 0.452
x1 = 0.9418 | 0.442 | 0.431 | 0.401

CCCCCCCCCCCO + CCCCCCCCO
viscosity [mPa·s]
Conditions | 293.15 K | 298.15 K | 308.15 K | 318.15 K
101 kPa, x2 = 0.1003 | – | 13.35 | – | –
101 kPa, x2 = 0.6998 | 10.95 | – | – | –
101.8 kPa, x2 = 0.1273 | – | 13.25 | 9.151 | 6.474
101.8 kPa, x2 = 0.3622 | – | 11.61 | 8.096 | 5.781
101.8 kPa, x2 = 0.5698 | – | 10.24 | 7.208 | 5.187
101.8 kPa, x2 = 0.756 | – | 9.094 | 6.447 | 4.673
101.8 kPa, x2 = 0.9212 | – | 7.658 | 5.5 | 4.027

CCCCCCCCCCCO + CCCCCCCO
viscosity [mPa·s]
Conditions | x2 = 0.1397 | x2 = 0.2254 | x2 = 0.388 | x2 = 0.5976 | x2 = 0.7764 | x2 = 0.9311
293.15 K, 101 kPa | – | 14.95 | – | – | – | –
298.15 K, 101.8 kPa | 12.82 | – | 10.49 | 8.805 | 7.365 | 6.099
308.15 K, 101.8 kPa | 8.867 | – | 7.363 | 6.26 | 5.311 | 4.433
318.15 K, 101.8 kPa | 6.299 | – | 5.309 | 4.554 | 3.906 | 3.289

CC(C)NC(C)C + CCCCCCO
viscosity [mPa·s], 101 kPa
Conditions | 298.15 K | 303.15 K | 308.15 K
x1 = 0.0503 | 3.969 | 3.366 | 2.859
x1 = 0.1067 | 3.51 | 3.018 | 2.588
x1 = 0.1499 | 3.195 | 2.751 | 2.379
x1 = 0.2041 | 2.823 | 2.438 | 2.114
x1 = 0.253 | 2.501 | 2.171 | 1.901
x1 = 0.3054 | 2.188 | 1.9 | 1.675
x1 = 0.4026 | 1.665 | 1.475 | 1.318
x1 = 0.4986 | 1.272 | 1.156 | 1.046
x1 = 0.6007 | 0.952 | 0.883 | 0.813
x1 = 0.7077 | 0.718 | 0.675 | 0.628
x1 = 0.7994 | 0.582 | 0.547 | 0.514
x1 = 0.8518 | 0.52 | 0.492 | 0.462
x1 = 0.9021 | 0.471 | 0.443 | 0.42
x1 = 0.9545 | 0.42 | 0.401 | 0.378

CCCCCCCCCCCO + CCCCCCO
viscosity [mPa·s], 101.8 kPa
Conditions | x2 = 0.1577 | x2 = 0.4196 | x2 = 0.6279 | x2 = 0.7981 | x2 = 0.9389
298.15 K | 12.3 | 9.508 | 7.506 | 6.064 | 4.788
308.15 K | 8.55 | 6.727 | 5.412 | 4.436 | 3.545
318.15 K | 6.083 | 4.876 | 3.983 | 3.309 | 2.68

CCOC(=O)CC(C)=O + CCCCCCO
viscosity [mPa·s], 100 kPa
Conditions | x1 = 0.1053 | x1 = 0.1983 | x1 = 0.2962 | x1 = 0.3947 | x1 = 0.4947 | x1 = 0.5989 | x1 = 0.6989 | x1 = 0.7954 | x1 = 0.892
293.15 K | 3.828 | 3.026 | 2.545 | 2.245 | 2.034 | 1.867 | 1.749 | 1.688 | 1.655
298.15 K | 3.286 | 2.644 | 2.285 | 2.022 | 1.809 | 1.651 | 1.571 | 1.555 | 1.538

CCCCCCn1cc[n+](C)c1.[Cl-] + CCCCCCn1cc[n+](C)c1.F[B-](F)(F)F
101 kPa
Conditions | viscosity [mPa·s]
303.15 K, x1 = 0.2 | 375.2
303.15 K, x1 = 0.4 | 795.2
308.15 K, x1 = 0.4 | 552.8
313.15 K, x1 = 0.4 | 394.5
318.15 K, x1 = 0.6 | 563.8
323.15 K, x1 = 0.6 | 403.5
323.15 K, x1 = 0.8 | 843.9

CCOC(=O)CC(C)=O + CCCCCO
viscosity [mPa·s], 100 kPa
Conditions | x1 = 0.0902 | x1 = 0.1791 | x1 = 0.2695 | x1 = 0.3621 | x1 = 0.4424 | x1 = 0.5633 | x1 = 0.6447 | x1 = 0.7739 | x1 = 0.8864
293.15 K | 2.988 | 2.424 | 2.132 | 1.935 | 1.8 | 1.67 | 1.635 | 1.603 | 1.599
298.15 K | 2.691 | 2.191 | 1.897 | 1.705 | 1.602 | 1.52 | 1.491 | 1.481 | 1.468
